Measured values as given in patent publication US20250197372A1 (priority 2020, published 2025).

Tests used:
[1] = biological target: T1, recombinant human GBA (beta-glucocerebrosidase) (Homo sapiens, UniProt P04062); assay: Beta-glucocerebrosidase (GBA, glucosylceramidase) assay (4-methylumbelliferyl-beta-D-pyranoside substrate, fluorescence); assay type: biochemical
T1 sequence (P04062 40-536): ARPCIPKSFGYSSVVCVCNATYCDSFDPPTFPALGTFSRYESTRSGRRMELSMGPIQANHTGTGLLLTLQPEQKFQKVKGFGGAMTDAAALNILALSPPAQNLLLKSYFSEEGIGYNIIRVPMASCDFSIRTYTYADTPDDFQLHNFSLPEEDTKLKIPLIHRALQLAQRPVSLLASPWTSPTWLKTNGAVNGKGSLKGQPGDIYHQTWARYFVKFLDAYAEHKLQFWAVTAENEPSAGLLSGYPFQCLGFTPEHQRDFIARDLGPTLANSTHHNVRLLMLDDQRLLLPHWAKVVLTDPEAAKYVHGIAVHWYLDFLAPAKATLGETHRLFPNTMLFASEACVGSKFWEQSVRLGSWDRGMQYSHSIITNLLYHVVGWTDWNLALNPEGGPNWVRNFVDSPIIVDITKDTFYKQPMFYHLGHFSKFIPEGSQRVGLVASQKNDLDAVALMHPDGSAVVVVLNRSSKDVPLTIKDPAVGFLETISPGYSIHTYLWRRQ
Procedure, shortened: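 IC50 by four-parameter fit of percent inhibition, with product fluorescence (365/440 nm) read after a glycine/NaOH pH 10 stop. Compound and commercial recombinant human enzyme were incubated 60 min at 37 °C before a further 60 min at 37 °C with 4-methylumbelliferyl-beta-D-pyranoside substrate.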

[2] = biological target: rat sucrase (partially purified alpha-glucosidase from intestinal rat powder) (Rattus norvegicus, UniProt P23739); assay: Intestinal alpha-glucosidase assay, sucrose substrate (Glucose GO Kit); assay type: biochemical
Procedure, shortened: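 First step: 60 min, 37 °C, compound with partially purified rat intestinal alpha-glucosidase. Next, maltose or sucrose for 30 min at 37 °C, ended at 90 °C for 5 min. Glucose quantified enzymatically; concentration–inhibition data fitted 4-PL for IC50.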

rat sucrase (partially purified alpha-glucosidase from intestinal rat powder), sequence (P23739 whole entry): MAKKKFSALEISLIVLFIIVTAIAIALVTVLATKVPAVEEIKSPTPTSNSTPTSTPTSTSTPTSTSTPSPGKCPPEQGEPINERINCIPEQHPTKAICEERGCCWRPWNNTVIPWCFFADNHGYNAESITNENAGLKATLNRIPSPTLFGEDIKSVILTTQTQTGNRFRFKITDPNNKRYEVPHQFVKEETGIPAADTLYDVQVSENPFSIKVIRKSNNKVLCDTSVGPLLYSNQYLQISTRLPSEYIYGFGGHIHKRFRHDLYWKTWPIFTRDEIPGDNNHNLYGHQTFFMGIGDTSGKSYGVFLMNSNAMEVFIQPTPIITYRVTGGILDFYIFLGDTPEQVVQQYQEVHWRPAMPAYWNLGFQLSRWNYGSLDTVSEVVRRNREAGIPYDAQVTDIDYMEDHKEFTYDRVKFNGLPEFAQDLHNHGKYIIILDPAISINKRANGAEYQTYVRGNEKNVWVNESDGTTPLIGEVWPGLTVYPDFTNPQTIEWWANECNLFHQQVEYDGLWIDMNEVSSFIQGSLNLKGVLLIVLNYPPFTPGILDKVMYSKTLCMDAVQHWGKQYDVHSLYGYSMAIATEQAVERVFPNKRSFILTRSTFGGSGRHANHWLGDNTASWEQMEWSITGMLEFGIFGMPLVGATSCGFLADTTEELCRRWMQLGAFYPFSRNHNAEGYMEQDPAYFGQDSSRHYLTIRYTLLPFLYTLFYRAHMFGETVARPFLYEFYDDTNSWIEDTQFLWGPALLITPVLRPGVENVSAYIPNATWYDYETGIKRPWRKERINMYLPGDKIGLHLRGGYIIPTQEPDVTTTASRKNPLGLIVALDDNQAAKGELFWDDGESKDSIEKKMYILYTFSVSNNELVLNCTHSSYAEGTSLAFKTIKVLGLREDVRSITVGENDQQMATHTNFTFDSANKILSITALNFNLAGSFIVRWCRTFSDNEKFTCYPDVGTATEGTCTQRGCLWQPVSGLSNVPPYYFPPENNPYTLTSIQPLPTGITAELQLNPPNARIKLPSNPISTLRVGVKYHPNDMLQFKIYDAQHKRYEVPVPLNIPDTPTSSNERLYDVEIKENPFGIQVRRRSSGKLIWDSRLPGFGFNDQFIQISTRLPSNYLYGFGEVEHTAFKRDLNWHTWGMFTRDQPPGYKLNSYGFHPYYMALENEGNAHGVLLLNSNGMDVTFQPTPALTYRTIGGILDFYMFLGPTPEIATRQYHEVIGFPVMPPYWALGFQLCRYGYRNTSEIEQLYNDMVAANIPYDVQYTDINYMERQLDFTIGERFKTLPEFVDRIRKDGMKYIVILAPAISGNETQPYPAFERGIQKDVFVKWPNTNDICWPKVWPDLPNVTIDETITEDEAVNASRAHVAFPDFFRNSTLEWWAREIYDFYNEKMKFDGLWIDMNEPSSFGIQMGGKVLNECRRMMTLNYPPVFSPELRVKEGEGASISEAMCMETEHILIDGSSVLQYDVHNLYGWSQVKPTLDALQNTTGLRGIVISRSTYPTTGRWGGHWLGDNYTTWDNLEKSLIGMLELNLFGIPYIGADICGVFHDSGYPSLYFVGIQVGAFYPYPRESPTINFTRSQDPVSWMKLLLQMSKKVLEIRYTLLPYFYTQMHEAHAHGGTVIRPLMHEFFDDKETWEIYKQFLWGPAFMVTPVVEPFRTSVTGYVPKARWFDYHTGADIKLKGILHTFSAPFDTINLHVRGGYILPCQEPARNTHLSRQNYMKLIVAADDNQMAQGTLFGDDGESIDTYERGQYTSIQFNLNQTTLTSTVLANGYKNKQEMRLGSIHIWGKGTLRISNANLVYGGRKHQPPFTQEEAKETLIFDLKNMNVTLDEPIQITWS

Row | Compound | IC50 [1] [nM] | IC50 [2] [nM]
1 | N#Cc1cc(Cl)cc(NCCc2ccc(CCN3C[C@H](O)[C@@H](O)[C@H](O)[C@H]3CO)cc2)c1 [Compound 1134, 3-chloro-5-{[2-(4-{2-[(2R,3R,4R,5S)-3,4,5-trihydroxy-2-(hydroxymethyl)piperidin-1-yl]ethyl}phenyl)ethyl]amino}benzonitrile] | 2360 | 259
2 | CS(=O)(=O)c1cc(NCc2cccc(CN3C[C@H](O)[C@@H](O)[C@H](O)[C@H]3CO)c2)cc(-c2ncccn2)c1 [Compound 1041, (2R,3R,4R,5S)-2-(hydroxymethyl)-1-{[3-({[3-methanesulfonyl-5-(pyrimidin-2-yl)phenyl]amino}methyl)phenyl]methyl}piperidine-3,4,5-triol] | > 100000 | 187
3 | N#Cc1cc(NCCCCCCN2C[C@H](O)[C@@H](O)[C@H](O)[C@H]2CO)cc(-c2ncccn2)c1 [Compound 1130, 3-(pyrimidin-2-yl)-5-({6-[(2R,3R,4R,5S)-3,4,5-trihydroxy-2-(hydroxymethyl)piperidin-1-yl]hexyl}amino)benzonitrile] | 974 | 30
